Reference: patent US6649366B2, “Methods and compositions related to modulators of annexin and cartilage homeostasis” (SmithKline Beecham Corporation, priority 1999, dated 2003)
Entries after “also recorded” stand apart in the source; their conditions may differ.

Tests used:
[1] = system: embryonic avian tibias; test: LPS-induced cartilage degradation in tibia organ cultures; format: cell-based, Chick
Method: The purpose of this study was to test the ability of calcium channel blocker BDA to inhibit cartilage degradation in embryonic avian tibias maintained in organ culture in the presence of lipopolysaccharide (LPS). Chick tibiotarsi were removed from 12 day embryos and their tarsal regions removed. These bones were maintained in organ culture as previously described (26-28). Four bones were placed in each well of a 24-well plate and cultured in 1 ml of DMEM supplemented with 50 μg/ml ascorbate and 10 μg/ml LPS (E. coli serotype 0111 :B4, catalog #L-3012, Sigma, St. Louis). The culture medium with fresh supplements was changed every other day. BDA was dissolved in DMSO at a stock concentration of 2 mM. BDA was added to the culture medium on all feeding days and tested at two concentrations, 0.5 and 2 μM. Control cultures received an equivalent concentration of DMSO. The loss of cartilage from the embryonic bones was measured as the release of proteoglycans and collagen (hydroxyproline) into the culture medium. The spent culture medium was collected with each medium change. The proteoglycan content of the culture medium was determined by a dimethyl methylene blue dye-binding assay (25). The hydroxyproline was measured by a colorimetric assay in 96 well plates (29).

[2] = system: OP-1; test: endogenous OP-1 in IL-1β challenged cartilage explants (western blot); format: cell-based, human
Method: Full thickness articular cartilage was dissected from load bearing regions of the femoral condyles of donors with no history of joint disease within 24 hours of death. Samples from men and women (age 50 to 76) were obtained from the Regional Organ Bank of Illinois as described above. After opening the joint, the surface of the cartilage was examined grossly. The appearance of each joint was given a grade based on the Collins scale (30) as modified by Muehleman et al (31).
Tissue explants (3×3 mm) were prepared as described above and were cultured in Dulbecco's modified Eagle's medium/Hams' F12 (1/1) containing 10 ml/L of Insulin Transferrin Selenium A (ITS, Gibco), 25 μg/ml ascorbate, and 50 μg/ml gentamicin. Experimental cultures contained either recombinant human IL-1β (Genzyme), BDA compound in DMSO, or a combination of IL-1β and BDA. ITS containing medium was used to reduce or eliminate serum-contained growth factors that could mask the released OP-1 or OP-1 degradation products and create nonspecific binding of the antibodies. To reach a steady state, cartilage explants were cultured in the absence of IL-1β or BDA for 4 days (or 96 hours) followed by two days (or 48 hours) of culture with IL-1β, BDA or both IL-1β and BDA. DMSO was added to the media control groups to account for a possible effect of DMSO.
Articular cartilage explants were briefly washed with 0.9% saline, homogenized and extracted in 1 M guanidine hydrochloride in the presence of proteinase inhibitors (0.1 M ε-aminocaproic acid, 0.05 M sodium acetate, 0.005 M EDTA, 0.005 M benzamidine chloride, 0.01 M N-ethylmaleimide, 0.0005 M phenymethanesulfonyl fluoride) at pH 7.4. Samples were extracted for 3 h in the refrigerator, and the extracts, together with the media, were dialyzed against water for 48 hours at 2-8° C., lyophilized and solubilized in sample buffer (0.01 M Tris HCl, pH 6.5, 1% sodium dodecyl sulfate (SDS), 10% glycerol, 0.016% bromphenol blue, 8 M urea, 0.2 M sodium chloride with (for the reduced conditions) or without (for non-reduced conditions) dithioerythritol added (DTT), pH 6.8). Cartilage extracts and media were analyzed by western blotting. All samples were normalized to the protein concentration. Protein concentrations was determined by a colorimetric assay, using BSA as a standard (Pierce, Rockford, Ill.).
Aliquots of samples (30 μg of protein per lane) were analyzed by electrophoresis and immunoblotting. Samples were loaded onto a 12% SDS-polyacrylamide gel (PAGE) in a buffer containing 0.2 M glycine, 25 mM Tris and 3.5 mM SDS. Proteins were transferred from SDS-PAGE gels onto nitrocellulose transfer membranes overnight at 20 V, 4-8° C. in a buffer containing 12 mM Tris (pH 7.4), 6 mM Na acetate, and 0.3 mM EDTA at pH 7.4. Immunoblot analyses was done using OP-1 antibodies. […]

[3] = molecular target: T1, annexin III (Homo sapiens, UniProt P12429); details: liposomes; cited from earlier work
T1 sequence (P12429 1-323): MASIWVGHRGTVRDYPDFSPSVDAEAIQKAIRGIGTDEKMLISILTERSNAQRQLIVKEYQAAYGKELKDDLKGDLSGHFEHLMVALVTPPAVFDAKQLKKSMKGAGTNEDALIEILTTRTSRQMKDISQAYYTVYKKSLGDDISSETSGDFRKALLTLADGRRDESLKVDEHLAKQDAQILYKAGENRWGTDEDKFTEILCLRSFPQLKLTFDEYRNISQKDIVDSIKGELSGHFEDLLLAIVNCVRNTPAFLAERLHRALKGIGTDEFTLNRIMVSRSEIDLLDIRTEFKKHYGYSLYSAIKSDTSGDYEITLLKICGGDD

[4] = molecular target: T2, annexin I (Homo sapiens, UniProt P04083); details: liposomes; cited from earlier work
T2 sequence (P04083 1-346): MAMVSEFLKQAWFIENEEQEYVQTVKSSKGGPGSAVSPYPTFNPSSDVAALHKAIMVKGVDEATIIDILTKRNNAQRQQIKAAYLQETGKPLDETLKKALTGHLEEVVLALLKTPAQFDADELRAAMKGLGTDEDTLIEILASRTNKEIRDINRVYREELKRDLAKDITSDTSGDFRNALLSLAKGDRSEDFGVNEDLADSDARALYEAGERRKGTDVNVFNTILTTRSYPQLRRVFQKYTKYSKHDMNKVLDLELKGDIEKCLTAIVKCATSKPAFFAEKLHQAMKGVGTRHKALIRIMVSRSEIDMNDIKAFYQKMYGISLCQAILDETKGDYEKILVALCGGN

[5] = molecular target: T3, annexin V (Homo sapiens, UniProt P08758); details: liposomes; cited from earlier work
T3 sequence (P08758 1-320): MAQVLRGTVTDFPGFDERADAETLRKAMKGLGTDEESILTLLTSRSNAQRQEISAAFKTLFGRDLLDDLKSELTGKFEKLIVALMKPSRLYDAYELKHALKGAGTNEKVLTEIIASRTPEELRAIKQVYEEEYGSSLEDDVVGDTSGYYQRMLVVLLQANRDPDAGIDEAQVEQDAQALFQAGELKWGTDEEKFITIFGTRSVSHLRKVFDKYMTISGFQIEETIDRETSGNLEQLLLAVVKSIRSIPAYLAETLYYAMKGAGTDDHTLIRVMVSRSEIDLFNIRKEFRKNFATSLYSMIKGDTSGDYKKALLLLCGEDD

[6] = molecular target: T3, annexin V; test: calcium ion flux assay in artificial vesicles containing annexin V (Calcium Green fluorescence); format: biochemical; details: 180 ug/ml Annexin V, 100 ug/ml CII Peptide where present, 2 hours
Method: Artifical vesicles containing annexin were prepared according to methods known in the art. Specifically, vesicles were prepared by drying down lipids (Avanti Polar Lipids) with nitrogen overlay. Lipids were washed once in ether and further dried under vacuum overnight. Lipids were then sonicated on ice in NMDG Buffer (150 mM N Methyl D Glucamine, and 10 mM Hepes, adjusted to ph 7.4 with HCl, then diluted to 100 mOSM with water) containing 300μM Calcium Green dye (Molecular Probes). Extravesicular dye was removed by Biobead extraction for 20 minutes.
Vesicles were diluted 1:100 in NMDG Buffer, mixed with Annexin V with or without collagen fragments (CII peptide), and incubated for 2 hours. Ca^++ fluxes were measured according to Kaneko et al.. Fluorescence was measured in a 96 well plate using the Flipr plate reader.

Compound: CN1C(=O)C(NC(=O)C(N)Cc2c[nH]c3ccccc23)C=C(c2ccccc2)c2ccccc21 (centres unmarked) [BDA]
- LPS induced proteoglycan release to the culture medium ([1]; 0.5 μM, compared to DMSO carrier control): intermediate loss; also recorded: intermediate amount
- LPS induced collagen (hydroxyproline) release ([1]; 0.5 μM, feeding day 15): intermediate degree of collagen release
- LPS induced proteoglycan release to the culture medium ([1]; 2 μM): least release
- LPS induced collagen (hydroxyproline) release ([1]; 2 μM, feeding day 15): least collagen loss
- LPS induced cartilage loss (release of hydroxyproline or proteoglycan) ([1]; 0.5 and 2 μM, dose dependence): dose-dependent inhibition
- LPS induced collagen (hydroxyproline) release ([1]; 0.5 and 2 μM, dose dependence): dose-dependent inhibition
- LPS induced proteoglycan release to the culture medium ([1]; 0.5 and 2 μM, dose dependence): dose-dependent inhibition
- size of the bone and cartilage at the end of the experiments ([1]; LPS cultures): increased size of the bone and cartilage
- release of pro-OP-1 domain ([2]; culture media): enhanced the release of pro-OP-1 domain
- release of pro-OP-1 into culture media ([2]; day 2 of culture): dramatic release of pro-OP-1
- content of endogenous OP-1 in cartilage ([2]; human cartilage explants, IL-1 culture, 48 hours): increase in the content of endogenous OP-1; also recorded: increase in the content of endogenous anabolic factor
- processing of endogenous OP-1 from pro- into mature form ([2]; human cartilage under catabolic conditions): processing of cartilage endogenous OP-1 from pro- into mature form

Compound: CN1C(=O)CN=C(c2ccccc2)c2ccccc21 [BDA 250, 1,3-dihydro-1-methyl-5-phenyl-2H-1,4-benzodiazepine-2-one]
- calcium fluxes induced by annexin III [3]: inhibited
- calcium fluxes induced by annexin I [4]: inhibited
- calcium fluxes induced by annexin V [5]: no effect

Compound: Annexin V: calcium and phospholipid binding protein mixed with vesicles
- Fluorescence (Calcium Signal) ([6]; Lipid Ratio 65% PS/12.5% PC/12.5% PE/5% Chol): 29023
- Fluorescence (Calcium Signal) ([6]; Lipid Ratio 70% PS/12.5% PC/12.5% PE): 46454
